# Laboratory results reported in US4595698A, “Physiologically active substance, arphamenine and production thereof” (Zaidan Hojin Biseibutsu Kagaku Kenkyu Kai, priority 1982, dated 1986).
# Like-named read-outs stand apart in the source and are kept apart here.
# Assays:
# aminopeptidase B = molecular target: T1, aminopeptidase B (Rattus norvegicus, UniProt O09175); assay: Inhibition of aminopeptidase B (arginine-β-naphthylamide degradation, modified Hoppusu method); type: biochemical
# T1 construct: an aminopeptidase B which had been purified with DEAE-Cellulose; from tissue
# T1 sequence (O09175 1-650): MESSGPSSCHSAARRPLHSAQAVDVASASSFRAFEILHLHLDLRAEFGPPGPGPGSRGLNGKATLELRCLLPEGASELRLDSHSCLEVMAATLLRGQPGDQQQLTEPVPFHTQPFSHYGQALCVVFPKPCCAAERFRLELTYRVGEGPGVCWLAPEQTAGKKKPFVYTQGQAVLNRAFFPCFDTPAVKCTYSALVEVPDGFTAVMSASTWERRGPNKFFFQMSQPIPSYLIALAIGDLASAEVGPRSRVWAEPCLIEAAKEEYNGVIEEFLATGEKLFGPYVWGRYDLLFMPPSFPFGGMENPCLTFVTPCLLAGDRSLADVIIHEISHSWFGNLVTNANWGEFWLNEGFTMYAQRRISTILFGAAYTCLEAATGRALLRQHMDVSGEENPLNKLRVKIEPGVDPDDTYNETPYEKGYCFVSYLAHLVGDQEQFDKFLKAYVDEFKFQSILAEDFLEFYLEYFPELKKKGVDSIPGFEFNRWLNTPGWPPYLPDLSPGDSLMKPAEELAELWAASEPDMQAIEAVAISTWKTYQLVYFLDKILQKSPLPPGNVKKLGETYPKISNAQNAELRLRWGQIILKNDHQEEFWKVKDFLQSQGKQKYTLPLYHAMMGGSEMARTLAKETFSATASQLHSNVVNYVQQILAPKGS
# Description: Tracing of arphamenine which was made during the course of cultivation of the arphamenine-producing strain, as well as during the course of recovery and purification of arphamenine was conducted by determining the anti-aminopeptidase B potency of arphamenine according to the following methods.
# In detail, 0.5 ml of 0.1 M tris-hydrochloride buffer solution (pH 7.0) and 0.25 ml of a solution containing an arphamenine specimen were added to 0.25 ml of a substrate solution containing 0.002 M arginine-β-naphthylamide. The mixed solution so obtained was heated at 37° C. for 3 minutes. To the heated solution was added 5 μl of a solution of an aminopeptidase B which had been purified with DEAE-Cellulose according to the enzyme-purification technique of Hoppusu et al. The resulting mixture was reacted for 30 minutes at 37° C., and the resultant reaction mixture was admixed with 1 ml of 1.0 M acetate buffer solution (pH 4.2) containing Fast Garnet GBC (o-aminoazotoluene, diazonium salt) at a concentration of 1 mg/ml and a surfactant "Tween" 20 at a concentration of 10% to stop the enzyme reaction. After allowing the resulting mixture to stand at ambient temperature for 15 minutes, absorbance (a) at 525 nm of the reaction solution was measured. On the other hand, adsorbance (b) at 525 nm of a control reaction solution obtained from the blank test using the buffer solution containing no arphamenine was measured. Percent of inhibition to the aminopeptidase B was calculated from the equation [(b-a)/b]×100.
# [1] = tested on: cell-mediated immunity (D.T.H. to SRBC); assay: D.T.H. to SRBC in tumor-bearing (Sarcoma 180) mice, Test Example 2 (1); type: in vivo, CDF1 mice; conditions: for Increased thickness of footpad / T/C (%): 4 days; for T/C (%): control = 100
# Description: The swelling degree on the footpad in mice was evaluated in the same way as in Test Example 1, except that the CDF1 mice employed for the test previously received an intraperitoneal inoculation of 10^6 Sarcoma 180 cells, and that arphamenine A was administered intraperitoneally once daily for 4 consecutive days, including the day of inoculation of SRBC, and two days after the administration, SRBC was given to the treated mice to elicit D.T.H. response.
# Ehrlich Solid Tumor = assay: Anti-tumor activity against Ehrlich Solid Tumor, Test Example 3; type: in vivo, ddY mice; conditions: for Average size of tumor / Average weight of tumor / TIR (%), tumor size / TIR (%), tumor weight: 7 times on alternate days, day 30
# Description: Anti-tumor activity of arphamenine against Ehrlich Solid Tumor.
# 3×10^6 cells of Ehrlich ascites tumor were transplanted subcutaneously into the flank of ddY mice (8-week old, female, 5 mice per group). The day of this transplantation was designated as Day 0. Then, 0.5, 0.05 or 0.005 mg/kg of the test compound dissolved in physiological saline solution was orally administered to the mice a total of 7 times on alternate days until Day 15, beginning on Day 1. On day 30, the size (shorter diameter^2 ×longer diameter/2) of tumor and the weight of tumor were measured. The results in this treated group of mice were compared with those in the control group of mice to calculate tumor inhibition rate (TIR, %) according to the following equation: [formula] where C denotes the size or weight of tumor in the control group, and T denotes the size or weight of tumor in the treated group.
# [2] = tested on: cell-mediated immunity (D.T.H. response to sheep red blood cells); assay: Delayed Type Hypersensitivity (D.T.H.) to SRBC in normal mice, Test Example 1; conditions: for Increased thickness of footpad / T/C (%): Table 1, single oral dose; for T/C (%): control = 100
# Description: Effect of arphamenine on cell-mediated immunity in normal mice.
# Effect of arphamenines A and B on the cell-mediated immunity was tested according to a known Delayed Type Hypersensitivity (D.T.H.) technique (see P. H. Lagrange, G. B. Mackaness and T. E. Miller: "J. Exp. Med.", 139, 1529~1539 (1974)) using mice immunized with sheep red blood cells (SRBC) as the antigen inoculated to the foot-pad pad of the mice.
# Thus, 10^8 SRBC suspended in 0.05 ml of physiological saline was inoculated by subcutaneous injection to the one side of hind footpad of CDF1 mice (5 mice per group, female, 8-weeks old) to make immunization. At the time of this immunization, an aqueous solution containing 5 mg/kg, 0.5 mg/kg, 0.05 mg/kg or 0.005 mg/kg of arphamenine A or B was administered orally at a single dose to each test mice. 4 Days after the immunization, 10^8 SRBC in 0.05 ml of physiological saline was injected subcutaneously into the other side of the hind footpad of the test mice for elicitation of D.T.H. response. 24 Hours after the eliciting injection, the thickness (in mm) of the hind footpad having received the eliciting injection of SRBC was measured with calipers. At the same time, the thickness of the other side of footpad which had not received the eliciting injection of SRBC was also measured in each mouse.
# The increase of footpad thickness (the swelling degree) was calculated by the following equation: [formula]
# The effect of arphamenine on the DTH response was evaluated by the following equation: [formula]
# Therefore, the assumption was here that the value for the control mice (untreated) was evaluated to be 100%.
# mice = assay: Acute toxicity tests in mice by intravenous injection; type: in vivo; conditions: iv. dose of 250 mg/kg
# Description: Acute toxicity tests in mice by intravenous injection have shown that no deaths are caused by arphamenine A in an iv. dose of 250 mg/kg or by arphamenine B in an iv. dose of 150 mg/kg. […] These new compounds are therefore useful as immunopotentiators and anti-tumor immunomodulators or as adjuvants to various chemotherapeutic agents for use in the treatment of carcinomas.
# [3] = Table 3, fourth line, 0.005 mg/kg intraperitoneally once daily
# [4] = Table 3, third line, 0.005 mg/kg (so in the source) intraperitoneally once daily
# [5] = Table 3, 0.5 mg/kg intraperitoneally once daily
# [6] = Table 3, 5 mg/kg intraperitoneally once daily
smiles,measurement,setting,value
N=C(N)NCCCC(N)C(=O)CC(Cc1ccccc1)C(=O)O (stereo not shown) [Arphamenine A],IC50,"aminopeptidase B; colorless, pure powder, Examples 4 and 5, read-out: anti-aminopeptidase B potency, IC50 (converted)",0.0169 µM
same,IC50,"aminopeptidase B; colorless, pure product, pH 7.0, 37° C., 30 minutes, read-out: IC50, dose giving 50% inhibition to the aminopeptidase B (converted)",0.0156 µM
same,IC50,"aminopeptidase B; crude powder after CM-Sephadex C-25, Example 3, read-out: anti-aminopeptidase B potency, IC50 (converted)",0.0203 µM
same,IC50,"aminopeptidase B; light yellow powder after Biogel P-2, Examples 8 and 9, read-out: anti-aminopeptidase B potency (IC50) (converted)",0.0936 µM
same,Increased thickness of footpad,[1]; [3],5.9 ± 0.79 × 0.1 mm
same,T/C (%),[1]; [3],131%
same,Increased thickness of footpad,[1]; [4],6.5 ± 1.29 × 0.1 mm
same,T/C (%),[1]; [4],144%
same,Increased thickness of footpad,[1]; [5],6.7 ± 1.03 × 0.1 mm
same,T/C (%),[1]; [5],149%
same,Increased thickness of footpad,[1]; [6],5.8 ± 1.19 × 0.1 mm
same,T/C (%),[1]; [6],129%
same,cell-mediated immunity depressed by the tumor (in words),[1]; tumor-bearing,modulate the cell-mediated immunity depressed by the tumor
same,Average size of tumor,Ehrlich Solid Tumor; 0.005 mg/kg orally,2378 ± 3138 mm^3
same,Average weight of tumor,Ehrlich Solid Tumor; 0.005 mg/kg orally,1.62 ± 1.44 g
same,"TIR (%), tumor size",Ehrlich Solid Tumor; 0.005 mg/kg orally,55.2%
same,"TIR (%), tumor weight",Ehrlich Solid Tumor; 0.005 mg/kg orally,39.3%
same,"TIR (%), tumor size",Ehrlich Solid Tumor; 0.05 mg/kg orally,41.2%
same,"TIR (%), tumor weight",Ehrlich Solid Tumor; 0.05 mg/kg orally,37.8%
same,Average weight of tumor,"Ehrlich Solid Tumor; 0.05 mg/kg orally, **P < 0.05 (Ttest)",1.66 ± 1.50 g
same,Average size of tumor,"Ehrlich Solid Tumor; 0.05 mg/kg orally, *P < 0.1 (Ttest)",3120 ± 3584 mm^3
same,Average size of tumor,Ehrlich Solid Tumor; 0.5 mg/kg orally,4467 ± 4311 mm^3
same,Average weight of tumor,Ehrlich Solid Tumor; 0.5 mg/kg orally,2.62 ± 1.90 g
same,"TIR (%), tumor size",Ehrlich Solid Tumor; 0.5 mg/kg orally,15.8%
same,"TIR (%), tumor weight",Ehrlich Solid Tumor; 0.5 mg/kg orally,1.9%
same,host-mediated anti-tumor effect in terms of tumor size and tumor weight (in words),Ehrlich Solid Tumor; 0.05 and 0.005 mg/kg,produced a host-mediated anti-tumor effect
same,host-mediated anti-tumor effect (in words),Ehrlich Solid Tumor; summary statement,exhibit a host-mediated anti-tumor effect
same,Increased thickness of footpad,[2]; 0.005 mg/kg,11.9 ± 1.00 × 0.1 mm
same,T/C (%),[2]; 0.005 mg/kg,143%
same,Increased thickness of footpad,[2]; 0.05 mg/kg,13.0 ± 0.97 × 0.1 mm
same,T/C (%),[2]; 0.05 mg/kg,157%
same,Increased thickness of footpad,[2]; 0.5 mg/kg,11.5 ± 1.29 × 0.1 mm
same,T/C (%),[2]; 0.5 mg/kg,139%
same,Increased thickness of footpad,[2]; 5 mg/kg,10.4 ± 0.77 × 0.1 mm
same,T/C (%),[2]; 5 mg/kg,125%
same,cell-mediated immunity in normal animals (in words),[2]; normal animals,potentiate the cell-mediated immunity in normal animals
same,"deaths, acute toxicity",mice,no deaths
